In this test the target is b-Raf(V600E) (Homo sapiens, UniProt P15056, V600E). Put plainly: Raf/Mek Amplified Luminescence Proximity Homogeneous Assay (Alpha Screen). Type of test: biochemical. To be noted: b-Raf(V600E) approximately 4 pM; biotinylated Mek, kinase dead approximately 10 nM; ATP 10 μM; pre-incubation 60 minutes; reaction 3 hours at room temperature; read-out: mut-bRaf IC50. The protocol:
Raf/Mek Amplified Luminescence Proximity Homogeneous Assay
Assay buffer: 50 mM Tris, pH 7.5, 15 mM MgCl2, 0.01% Bovine Serum Albumin (BSA), 1 mM dithiothreitol (DTT) Stop buffer: 60 mM ethylenediaminetetraacetic acid (EDTA), 0.01% Tween® 20 Bead buffer: 50 mM Tris, pH 7.5, 0.01% Tween® 20 […]
biotinylated Mek, kinase dead
Alpha Screen detection kit (available from PerkinElmer™, #6760617R)
Anti phospho-MEK1/2 (available from Cell Signaling Technology, Inc. #9121) 384 well assay plates (White Greiner® plates, #781207) […]
b-Raf(V600E) approximately 4 pM […]
biotinylated Mek, Kinase dead approximately 10 nM
Pre-incubation time with compounds 60 minutes at room temperature
Reaction time 1 or 3 hours at room temperature
Raf and biotinylated Mek, kinase dead, were combined at 2× final concentrations in assay buffer (50 mM Tris, pH 7.5, 15 mM MgCl2, 0.01% BSA and 1 mM DTT) and dispensed 10 μl per well in assay plates (Greiner white 384 well assay plates #781207) containing 0.5 μl of 40× of a raf kinase inhibitor test compound diluted in 100% DMSO. The plate was incubated for 60 minutes at room temperature.
The Raf kinase activity reaction was started by the addition of 10 μL per well of 2×ATP diluted in assay buffer. After 3 hours (bRaf(V600E)) or 1 hour (c-Raf), the reactions were stopped with the addition of 10 μL of stop reagent (60 mM EDTA). Phosphorylated product was measured using a rabbit anti-p-MEK (Cell Signaling, #9121) antibody and the Alpha Screen IgG (ProteinA) detection Kit (PerkinElmer #6760617R), by the addition of 30 μL to the well of a mixture of the antibody (1:2000 dilution) and detection beads (1:2000 dilution of both beads) in bead buffer (50 mM Tris, pH 7.5, 0.01% Tween20). The additions were carried out under dark conditions to protect the detection beads from light. A lid was placed on top of the plate and incubated for 1 hour at room temperature, then the luminescence was read on a PerkinElmer Envision instrument. The concentration of each compound for 50% inhibition (IC50) was calculated by non-linear regression using XL Fit data analysis software.

Chain of b-Raf(V600E) (P15056 whole entry V600E): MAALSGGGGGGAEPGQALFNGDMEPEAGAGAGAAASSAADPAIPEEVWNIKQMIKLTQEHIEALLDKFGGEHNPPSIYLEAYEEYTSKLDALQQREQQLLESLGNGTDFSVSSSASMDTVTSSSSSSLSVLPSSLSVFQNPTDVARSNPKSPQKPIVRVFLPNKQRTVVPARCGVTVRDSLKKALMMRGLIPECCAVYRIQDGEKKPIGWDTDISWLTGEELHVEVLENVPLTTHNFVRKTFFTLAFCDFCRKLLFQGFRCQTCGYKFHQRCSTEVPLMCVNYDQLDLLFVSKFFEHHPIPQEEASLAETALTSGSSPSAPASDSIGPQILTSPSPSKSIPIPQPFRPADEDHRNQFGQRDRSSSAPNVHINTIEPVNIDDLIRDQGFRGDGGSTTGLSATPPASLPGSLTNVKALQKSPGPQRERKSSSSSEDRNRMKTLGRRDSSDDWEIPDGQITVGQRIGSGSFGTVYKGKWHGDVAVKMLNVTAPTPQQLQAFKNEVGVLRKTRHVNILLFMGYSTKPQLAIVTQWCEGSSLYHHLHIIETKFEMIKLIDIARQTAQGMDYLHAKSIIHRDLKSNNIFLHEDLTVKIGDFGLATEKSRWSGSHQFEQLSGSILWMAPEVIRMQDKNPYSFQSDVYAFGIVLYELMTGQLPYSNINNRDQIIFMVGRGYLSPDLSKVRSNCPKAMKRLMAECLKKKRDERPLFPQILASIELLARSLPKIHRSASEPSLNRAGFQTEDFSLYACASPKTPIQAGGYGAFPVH

By IC50 is commonly meant the midpoint of a concentration-inhibition curve. Take `COC(=O)N[C@@H](C)CNc1nccc(-c2oc(C3CC3)nc2-c2cc(F)cc(NS(C)(=O)=O)c2Cl)n1` [Example 19]: the IC50 turned out to be 1.5 nM.
For the compound `CNc1nccc(-c2sc(C3CC3)nc2-c2cc(Cl)cc(NS(C)(=O)=O)c2F)n1` [Example 20], the IC50 is 3 nM.
In the case of `CS(=O)(=O)Nc1cc(Cl)cc(-c2nc(C3CC3)sc2-c2ccnc(N)n2)c1F` [Example 21] it was 5.8 nM.
`CS(=O)(=O)Nc1cc(Cl)cc(-c2nc(C3CC3)oc2-c2ccnc(N)n2)c1F` [Example 22]: the IC50 turned out to be 3.3 nM.
With `CNc1nccc(-c2oc(C3CC3)nc2-c2cc(Cl)cc(NS(C)(=O)=O)c2F)n1` [Example 23], the IC50 stood at 18 nM.
In the case of `CC(C)(C)c1nc(-c2cccc(NS(C)(=O)=O)c2Cl)c(-c2ccnc(N)n2)s1` [Example 24] it was 46 nM; in that of `COC(=O)N[C@@H](C)CNc1nccc(-c2sc(C(C)(C)C)nc2-c2cccc(NS(C)(=O)=O)c2Cl)n1` [Example 25], 0.32 nM; in that of `CCCS(=O)(=O)Nc1cccc(-c2nc(C(C)(C)C)sc2-c2ccnc(N)n2)c1Cl` [Example 26], 0.65 nM.
Take `CNc1nccc(-c2sc(C(C)(C)C)nc2-c2cccc(NS(C)(=O)=O)c2Cl)n1` [Example 27]: the IC50 was determined as 44 nM.
Turning to `CCCS(=O)(=O)Nc1cccc(-c2nc(C(C)(C)C)sc2-c2ccnc(NC)n2)c1Cl` [Example 28], the IC50 worked out at 1.1 nM.
In the case of `CCCS(=O)(=O)Nc1cccc(-c2nc(C3CC3)sc2-c2ccnc(N)n2)c1Cl` [Example 29] it was 3.4 nM; in that of `CCCS(=O)(=O)Nc1cccc(-c2nc(C3CC3)oc2-c2ccnc(N)n2)c1Cl` [Example 30], 1.2 nM; in that of `CCCS(=O)(=O)Nc1cccc(-c2nc(C3CC3)oc2-c2ccnc(NC[C@H](C)NC(=O)OC)n2)c1Cl` [Example 31], 1.3 nM.
In the case of `CS(=O)(=O)Nc1cccc(-c2nc(C3CC3)sc2-c2ccnc(N)n2)c1Cl` [Example 32] it was 44 nM.
For `COC(=O)N[C@@H](C)CNc1nccc(-c2sc(C3CC3)nc2-c2cccc(NS(C)(=O)=O)c2Cl)n1` [Example 33], the IC50 worked out at 0.42 nM.
Turning to `CCCS(=O)(=O)Nc1cccc(-c2nc(C(C)(C)C)sc2-c2ccnc(NC[C@H](C)NC(=O)OC)n2)c1F` [Example 34], the IC50 came to 0.62 nM.
Consider `CCCS(=O)(=O)Nc1cccc(-c2nc(C(C)(C)C)sc2-c2ccnc(N)n2)c1F` [Example 35], for which the IC50 came to 1.8 nM.
Turning to `COC(=O)N[C@@H](C)CNc1nccc(-c2sc(C(C)(C)C)nc2-c2cccc(NS(C)(=O)=O)c2F)n1` [Example 36], the IC50 stood at 0.43 nM.
Regarding `CCCS(=O)(=O)Nc1cccc(-c2nc(C3CC3)sc2-c2ccnc(NC)n2)c1F` [Example 37], the IC50 was 5 nM.
In the case of `CCCS(=O)(=O)Nc1cccc(-c2nc(C3CC3)oc2-c2ccnc(NC[C@H](C)NC(=O)OC)n2)c1F` [Example 38] it was 0.59 nM.
On to `CCCS(=O)(=O)Nc1cccc(-c2nc(C3CC3)oc2-c2ccnc(N)n2)c1F` [Example 39], for which the IC50 came to 2.1 nM.
In the case of `CCCS(=O)(=O)Nc1cccc(-c2nc(C3CC3)sc2-c2ccnc(NC[C@H](C)NC(=O)OC)n2)c1F` [Example 40] it was 0.12 nM.
In the case of `CCCS(=O)(=O)Nc1cccc(-c2nc(C3CC3)sc2-c2ccnc(N)n2)c1F` [Example 41] it was 11 nM.
As to `COCC(=O)N[C@@H](C)CNc1nccc(-c2oc(-c3ccc(F)cc3)nc2-c2cc(C)cc(NS(C)(=O)=O)c2Cl)n1` [Example 42], the IC50 was determined as 3.1 nM.
Turning to `CCCNc1nccc(-c2oc(C3CC3)nc2-c2cccc(NS(C)(=O)=O)c2Cl)n1` [Example 43], the IC50 came to 62 nM.
In the case of `COC(=O)N[C@@H](C)CNc1nccc(-c2oc(C3CC3)nc2-c2cccc(NS(C)(=O)=O)c2Cl)n1` [Example 44] it was 1.3 nM; in that of `CS(=O)(=O)Nc1cccc(-c2nc(C3CC3)oc2-c2ccnc(N)n2)c1Cl` [Example 45], 17 nM.
In the case of `CS(=O)(=O)Nc1cccc(-c2nc(C3CC3)oc2-c2ccnc(NCCC#N)n2)c1Cl` [Example 46] it was 0.95 nM.
In the case of `CCCS(=O)(=O)Nc1cc(Cl)cc(-c2nc(C(C)(C)C)sc2-c2ccnc(N)n2)c1Cl` [Example 47] it was 0.13 nM; in that of `CCCS(=O)(=O)Nc1cc(Cl)cc(-c2nc(C(C)(C)C)sc2-c2ccnc(NC[C@H](C)NC(=O)OC)n2)c1Cl` [Example 48], 0.7 nM.
As to `COC(=O)N[C@@H](C)CNc1nccc(-c2sc(C(C)(C)C)nc2-c2cc(Cl)cc(NS(C)(=O)=O)c2Cl)n1` [Example 49], the IC50 is 0.4 nM.
With `CCCS(=O)(=O)Nc1cc(Cl)cc(-c2nc(C3CC3)sc2-c2ccnc(N)n2)c1Cl` [Example 50], the IC50 was determined as 0.056 nM.
Take `CCCS(=O)(=O)Nc1cc(Cl)cc(-c2nc(C3CC3)sc2-c2ccnc(NC)n2)c1Cl` [Example 51]: the IC50 came out at 0.08 nM.
As for `CCCS(=O)(=O)Nc1cc(Cl)cc(-c2nc(C3CC3)sc2-c2ccnc(NC[C@H](C)NC(=O)OC)n2)c1Cl` [Example 52], the IC50 was determined as 0.24 nM.
Regarding `CS(=O)(=O)Nc1cc(Cl)cc(-c2nc(C3CC3)sc2-c2ccnc(N)n2)c1Cl` [Example 53], the half-maximal inhibitory concentration (IC50) turned out to be 0.45 nM.
In the case of `CNc1nccc(-c2sc(C3CC3)nc2-c2cc(Cl)cc(NS(C)(=O)=O)c2Cl)n1` [Example 54] it was 0.46 nM; in that of `COC(=O)N[C@@H](C)CNc1nccc(-c2sc(C3CC3)nc2-c2cc(Cl)cc(NS(C)(=O)=O)c2Cl)n1` [Example 55], 0.28 nM; in that of `CCCS(=O)(=O)Nc1cc(Cl)cc(-c2nc(C3CC3)oc2-c2ccnc(N)n2)c1Cl` [Example 56], 0.022 nM.
In the case of `CCCS(=O)(=O)Nc1cc(Cl)cc(-c2nc(C3CC3)oc2-c2ccnc(NC[C@H](C)NC(=O)OC)n2)c1Cl` [Example 57] it was 0.56 nM.
In the case of `CS(=O)(=O)Nc1cc(Cl)cc(-c2nc(C3CC3)oc2-c2ccnc(N)n2)c1Cl` [Example 58] it was 0.35 nM.
Take `CNc1nccc(-c2oc(C3CC3)nc2-c2cc(Cl)cc(NS(C)(=O)=O)c2Cl)n1` [Example 59]: the IC50 was determined as 1.5 nM.
In the case of `COC(=O)N[C@@H](C)CNc1nccc(-c2oc(C3CC3)nc2-c2cc(Cl)cc(NS(C)(=O)=O)c2Cl)n1` [Example 60] it was 0.46 nM.
In the case of `CNc1nccc(-c2sc(C(C)(C)C)nc2-c2cc(Cl)cc(NS(C)(=O)=O)c2F)n1` [Example 61] it was 0.65 nM.
In the case of `CCCS(=O)(=O)Nc1cc(Cl)cc(-c2nc(C3CC3)oc2-c2ccnc(NC)n2)c1F` [Example 62] it was 0.28 nM.
In the case of `CCCS(=O)(=O)Nc1cc(Cl)cc(-c2nc(C3CC3)oc2-c2ccnc(N)n2)c1F` [Example 63], the IC50 came to 0.044 nM.
In the case of `CCCS(=O)(=O)Nc1cc(Cl)cc(-c2nc(C3CC3)oc2-c2ccnc(NC[C@H](C)NC(=O)OC)n2)c1F` [Example 64] it was 0.28 nM; in that of `CCCS(=O)(=O)Nc1cc(Cl)cc(-c2nc(C3CC3)sc2-c2ccnc(NC[C@H](C)NC(=O)OC)n2)c1F` [Example 65], 0.09 nM.
In the case of `CCCS(=O)(=O)Nc1cc(Cl)cc(-c2nc(C3CC3)sc2-c2ccnc(N)n2)c1F` [Example 66] it was 0.058 nM.

For the origin of these results see patent US20130096149A1, “HETEROARYL COMPOUNDS AND COMPOSITIONS AS PROTEIN KINASE INHIBITORS” (NOVARTIS AG, priority 2010, published 2013).
